Values quoted from earlier work as cited in patent US10871492B2, “Methods for labeling urine in a subject with fluorophores” (UPTRU INC., priority 2015, dated 2020).

Conditions: health care applications, especially fundus angiography

## O=C([O-])c1ccccc1-c1c2ccc(=O)cc-2oc2cc([O-])ccc12.[Na+].[Na+] [Fluorescein sodium salt, fluorescein sodium salt]
  dose generally considered safe: ≤ 25 mg/kg of body weight
